# Article PMC9589286, “Ruthenium polypyridine complexes with triphenylamine groups as antibacterial agents against Staphylococcus aureus with membrane-disruptive mechanism” (Frontiers in Chemistry, 2022)
# Experiments:
# Staphylococcus aureus [1] = assay: Nucleic acid leakage, 260 nm absorbing material; format: cell-based; details: 4 μg/ml, 2 h
# Description: To verify the membrane damage, the loss of 260 nm absorbing material was carried out ([Yu et al., 2021]). Briefly, overnight cultured bacteria were diluted 1:1000 in fresh TSB and shaken at 37°C for about 5 h until the exponential stage was reached. The supernatant was removed by centrifugation, then the bacteria were resuspended to OD600 = 1 with PBS, which was further treated with Ru-3 or polymyxin B and centrifuged after 2 h to precipitate bacterial cells. Subsequently, the loss of 260 nm absorbing material, including the release of DNA and RNA in the filtrate, was measured at 260 nm.
# [2] = Partition coefficient, shake flask 1-octanol/PBS; format: physicochemical
# Description: The partition coefficients of all complexes were determined by standard shake flask method in 1-octanol and buffer liquid system ([Yang et al., 2021]). In brief, the octanol/water partition coefficient is obtained by the incubation of 2 ml of 25 μg ml^−1 ruthenium complex 1-octanol and 2 ml PBS samples. After shaking the solution for 6 h, the samples were stood for 2 h. The absorbance of octanol complex at 282 nm before and after oscillation was measured. The absorbance of 1-octanol before oscillation minus the absorbance of 1-octanol after oscillation is the absorbance of the complex in water. Each experiment was repeated three times. The partition coefficient is reported as the number of octanol divided by the number of water.
# Staphylococcus aureus [3] = assay: DiSC3(5) and DAPI/PI fluorescence staining; format: cell-based; details: 4 μg ml^−1, 2 h
# Description: Firstly, S. aureus was cultured in TSB medium to exponential phase. Exponential growth bacteria were collected by centrifugation at 5000 rpm for 2 min, then washed with PBS and diluted to OD600 value of 0.3. Secondly, Ru-3 (4 μg ml^−1) was added to the bacterial suspension solution and incubated at 37°C for 2 h, then the supernatant was removed by centrifuging. Thirdly, the bacterial was washed with PBS for three times and suspendedin 500 μL PBS. Subsequently, adding 20 μL DiSC3(5) (30 μM), incubating for 1 h under dark conditions. For DAPI and PI, adding 20 μL DAPI (10 μg ml^−1), incubating for 15 min under dark conditions. Next, adding 20 μL PI (15 μg ml^−1) in the same tube, and incubating for 15 min under dark conditions. After that, centrifuge, removing the supernatant. Eventually, suspending with 500 uL PBS and 20 μL samples were transfered on glass slides and observed under fluorescent cell imager.
# Staphylococcus aureus [4] = assay: Drug resistance study, 20 generations at sub inhibitory concentration; format: cell-based
# Description: After Staphylococcus aureus was cultured for 5 h, the bacteria were diluted 1000 times with fresh TSB and the MIC of Ru-3 was measured. The bacterial solution grown at the sub inhibitory concentration of compound Ru-3 was inoculated into fresh TSB medium for 5 h, then the MIC was measured, and the above procedure was repeated for 20 generations. Ampicillin was used as the control.
# [5] = system: Staphylococcus aureus in biofilm; assay: Killing bacteria in established biofilm; format: cell-based; details: 32 μg ml^−1; initial 8.62
# Description: To establish bacterial biofilm, the overnight cultured Staphylococcus aureus strain was diluted 1000 times with fresh TSB medium, then the bacterial suspension was transferred to 96 well plate and cultured for 24 h. Subsequently, the supernatant was removed and the formed biofilm was washed 3 times with PBS solution. 200 μL solution containing Ru-3 of different concentrations (512, 256, 128, 64, 32, 16, 8, 4 μg ml^−1) were added and further incubated at 37°C for 24 h. Biofilm without Ru-3 were used as positive controls. Then the supernatant was discarded and the residual biofilm was cleaned using 200 μL PBS 3 times. Next, fresh medium was added to culture for 24 h ([Yang et al., 2021]). The solution after culture was diluted 1000 times and 100 μL was taken out for plate coating and counting.
# Staphylococcus aureus [6] = assay: MIC by microdilution in TSB broth; format: cell-based; details: S. aureus, 37°C, 20 h
# Description: (§1) Antibacterial activity was evaluated by measuring MIC (minimum inhibitory concentration) and MBC (minimum bactericidal concentration) values. The MIC value was measured by the microdilution method using TSB broth with 96 well plates ([Carlsen et al., 1981]) and the MBC value was determined by LB plates. In brief, the overnight cultured bacteria were 1: 1000 diluted with fresh medium to get a bacterial suspension. After incubation at 37°C for 20 h, the growth of bacteria is monitored by observing the turbidity of the culture. The bacterial solution was diluted as above method and the complexes were incubated with bacterial solution for 2 h. Then 100 μL bacterial solution was taken for plate coating. The Staphylococcus aureus growth inhibition trend in the presence of complexes was obtained. The MBC values of complexes were determined by LB plates after culturing in the same method for 24 h. All experiments were controlled with sterile water and repeated in parallel at least three times.
# Staphylococcus aureus [7] = assay: Membrane permeability, ONPG hydrolysis; format: cell-based; details: Ru-3 2 or 4 μg/ml vs vancomycin 2 μg/ml
# Description: O-nitrobenzene-β-D-galactopyranoside (ONPG) was the substrate of intracellular ß-galactosidase, that was used to determine the permeability of Staphylococcus aureus cell membrane. Staphylococcus aureus was cultured to logarithmic phase, then washed and cultured in M9 lactose medium, in which lactose was used as the only carbon source of a single colony and stayed overnight at 37°C. After washing three times with PBS, the culture was diluted to OD600 = 0.3 (PBS). […] The hydrolysis of ONPG to o-nitrophenol over time was monitored by UV every 15 min at 415 nm. A similar procedure was used for untreated cells as control ([Xuan et al., 2021]).
# [8] = system: Staphylococcus aureus biofilm; assay: Biofilm formation, crystal violet staining; format: cell-based
# Description: 24 well plate was used for biofilm determination. The overnight cultured Staphylococcus aureus strain was diluted 1000 times with fresh TSB medium. Then 2 ml of that diluted bacterial solution was mixed with 500 µL Ru-3 of different concentrations in a 24 well plate. After incubation at 37°C for 48 h, the bacterial suspension was removed and the plate was washed three times with PBS. The adherent bacteria were dried overnight at 37°C and then dyed through 0.1% crystal violet solution. After 2 min, taking out the crystal violet solution and wash the plate with PBS again. And then, adding 1 ml acetic acid and 1 ml water, the formation of biofilm can be determined by monitoring the absorbance at 595 nm.
# Staphylococcus aureus [9] = assay: MBC determined by LB plates; format: cell-based; details: S. aureus, 24 h
# Description: as §1
substance,measurement,setting,value
[Ru(dmb)2PMA] (PF6)2 [Ru-3],Δ% Nucleic acid leakage,Staphylococcus aureus [1],20%
same,LgP,[2],1.79
same,logD o/w,[2],ca. 1.7885
same,DAPI/PI fluorescence,Staphylococcus aureus [3],blue and red fluorescence
same,"membrane depolarization, DiSC3(5) fluorescence",Staphylococcus aureus [3],strong green fluorescence
same,increase of MIC value after 20 generations,Staphylococcus aureus [4]; 20 passages at sublethal concentration,four
same,MIC values against antibiotic resistant S. aureus,"Staphylococcus aureus [4]; ampicillin, polymyxin B, tetracycline, clindamycin resistant S. aureus obtained after 20 generations",almost the same as the wild type
same,number of the survival Staphylococcus aureus in the biofilm,[5],0 log10 colony-forming units per milliliter (CFU/ml)
same,MIC,Staphylococcus aureus [6],4 µg/mL
same,plasma membrane permeability (ONPG),Staphylococcus aureus [7],better membrane permeability
same,biofilm formation reduced by,"[8]; 1 μg ml^−1, 48 h",27%
same,Nomalized Biofilm formation,[8]; 1 μg/mL,73%
same,biofilm formation reduced by,"[8]; 2 μg ml^−1, 48 h",41%
same,Nomalized Biofilm formation,[8]; 2 μg/mL,59%
same,MBC,Staphylococcus aureus [9],32 µg/mL
